Reference: patent publication US20120214760A1, “TREATMENT OF URINARY TRACT INFECTIONS WITH ANTIBACTERIAL AMINOGLYCOSIDE COMPOUNDS” (Achaogen, Inc., priority 2009, published 2012)
Values after ≈ are worked out from the molar mass of the structure shown. Where two headings read alike, the source gives them in different places.

How the values were obtained:
Type in all cases: cell-based
M. morganii (15) = test: MIC, urinary tract infection isolates
Protocol: (§1) Minimum inhibitory concentrations (MIC) were determined by reference Clinical and Laboratory Standards Institute (CLSI) broth microdilution methods per M7-A7 [2006]. Quality control ranges utilizing E. coli ATCC 25922, P. aeruginosa ATCC 27853 and S. aureus ATCC 29213, and interpretive criteria for comparator agents were as published in CLSI M100-S17 [2007]. Briefly, serial two-fold dilutions of the test compounds were prepared at 2× concentration in Mueller Hinton Broth. The compound dilutions were mixed in 96-well assay plates in a 1:1 ratio with bacterial inoculum. The inoculum was prepared by suspension of a colony from an agar plate that was prepared the previous day. Bacteria were suspended in sterile saline and added to each assay plate to obtain a final concentration of 5×10^5 CFU/mL. The plates were incubated at 35° C. for 20 hours in ambient air.
(§2) In order to determine the activity of representative antibacterial aminoglycoside compounds against bacterial species that commonly cause complicated urinary tract infections worldwide, isolates were collected from 47 medical centers in the U.S. and Europe (10 countries) from urine or blood culture with the source of bacteremia documented as a urinary tract infection. Strains were susceptibility tested against Example 1, gentamicin, amikacin and 10 comparators by CLSI broth microdilution. These MIC assays were conducted following the same protocol as set forth in Example 110. Pathogens (169 in total) included E. coli, Klebsiella spp., Enterobacter spp., Citrobacter spp., P. mirabilis, M. Morganii, P. aeruginosa, S. aureus and S. saprophyticus.

P. mirabilis (20) = test: MIC, urinary tract infection isolates
Protocol: as §1, §2

Citrobacter spp. (15) = test: MIC, urinary tract infection isolates
Protocol: as §1, §2

E. coli (21) = test: MIC, urinary tract infection isolates
Protocol: as §1, §2

S. saprophyticus (19) = test: MIC, urinary tract infection isolates; conditions: S. saprophyticus
Protocol: as §1, §2

P. aeruginosa (19) = test: MIC, urinary tract infection isolates; conditions: P. aeruginosa
Protocol: as §1, §2

S. aureus (23) = test: MIC, urinary tract infection isolates; conditions: S. aureus
Protocol: as §1, §2

Enterobacter spp. (16) = test: MIC, urinary tract infection isolates
Protocol: as §1, §2

Klebsiella spp. (21) = test: MIC, urinary tract infection isolates
Protocol: as §1, §2

E. coli AECO 1003, MDR = test: MIC of thigh model strain; conditions: Escherichia coli
Protocol: as §1

[1] = test system: S. marcescens ASMA 1030, KPC; test: MIC of thigh model strain; conditions: Serratia marcescens; Table 5; S. marcescens KPC ASMA 1030
Protocol: as §1

[2] = test system: K. pneumoniae AKPN 1073, MDR; test: MIC of thigh model strain; conditions: Klebsiella pneumoniae; Table 5; K. pneumoniae MDR AKPN 1073
Protocol: as §1

[3] = test system: K. pneumoniae ATCC 43816, Susceptible; test: MIC of thigh model strain; conditions: Klebsiella pneumoniae, ATCC43816; Table 5; K. pneumoniae Susceptible ATCC 43816
Protocol: as §1

[4] = test system: S. aureus ATCC 33591, MRSA; test: MIC of thigh model strain; conditions: Staphylococcus aureus
Protocol: as §1

[5] = test system: K. pneumoniae AKPN 1109, KPC; test: MIC of thigh model strain; conditions: Klebsiella pneumoniae; Table 5; K. pneumoniae KPC AKPN 1109
Protocol: as §1

[6] = test system: E. coli ATCC 25922 (AECO001); test: MIC, CLSI broth microdilution; conditions: Escherichia coli, ATCC25922; Table 5; E. coli Susceptible ATCC 25922
In short: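 MICs were read after 20 hours at 35° C in ambient air, with a final inoculum of 5×10^5 CFU/mL from saline-suspended overnight colonies. Serial two-fold dilutions in Mueller Hinton Broth followed the CLSI reference method (M7-A7), with QC strains E. coli ATCC 25922, P. aeruginosa ATCC 27853 and S. aureus ATCC 29213.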

Staphylococcal isolates = test: Susceptibility testing, urinary tract infection isolates
Protocol: as §1
as §2, with “These MIC assays were conducted following the same protocol as set forth in Example 110. Pathogens (169 in total) included E. coli, Klebsiella spp., Enterobacter spp., Citrobacter spp., P. mirabilis, M. Morganii, P. aeruginosa, S. aureus and S. saprophyticus.” left out

CN[C@@H]1[C@@H](O)[C@@H](O[C@@H]2[C@@H](O)[C@H](O[C@H]3OC(CNCCO)=CC[C@H]3N)[C@@H](N)C[C@H]2NC(=O)[C@@H](O)CCN)OC[C@]1(C)O.O=S(=O)(O)O [ACHN-490]
Cumulative % inhibited at ACHN-490 MIC (M. morganii (15); at 0.5 μg/ml): 0.0%
Cumulative % inhibited at ACHN-490 MIC (M. morganii (15); at 1 μg/ml): 6.7%
Cumulative % inhibited at ACHN-490 MIC (M. morganii (15); at 2 μg/ml): 60.0%
Cumulative % inhibited at ACHN-490 MIC (M. morganii (15); at 4 μg/ml): 86.7%
Cumulative % inhibited at ACHN-490 MIC (M. morganii (15); at 8 μg/ml): 100.0%
Cumulative % inhibited at ACHN-490 MIC (M. morganii (15); at ≦0.25 μg/ml): 0.0%
Cumulative % inhibited at ACHN-490 MIC (P. mirabilis (20); at 0.5 μg/ml): 0.0%
Cumulative % inhibited at ACHN-490 MIC (P. mirabilis (20); at 1 μg/ml): 5.0%
Cumulative % inhibited at ACHN-490 MIC (P. mirabilis (20); at 2 μg/ml): 45.0%
Cumulative % inhibited at ACHN-490 MIC (P. mirabilis (20); at 4 μg/ml): 90.0%
Cumulative % inhibited at ACHN-490 MIC (P. mirabilis (20); at 8 μg/ml): 95.0%
Cumulative % inhibited at ACHN-490 MIC (P. mirabilis (20); at 16 μg/ml): 100.0%
Cumulative % inhibited at ACHN-490 MIC (P. mirabilis (20); at ≦0.25 μg/ml): 0.0%
Cumulative % inhibited at ACHN-490 MIC (Citrobacter spp. (15); at 0.5 μg/ml): 73.3%
Cumulative % inhibited at ACHN-490 MIC (Citrobacter spp. (15); at 1 μg/ml): 86.7%
Cumulative % inhibited at ACHN-490 MIC (Citrobacter spp. (15); at 2 μg/ml): 93.3%
Cumulative % inhibited at ACHN-490 MIC (Citrobacter spp. (15); at 4 μg/ml): 100.0%
Cumulative % inhibited at ACHN-490 MIC (Citrobacter spp. (15); at ≦0.25 μg/ml): 0.0%
Cumulative % inhibited at ACHN-490 MIC (E. coli (21); at 0.5 μg/ml): 19.0%
Cumulative % inhibited at ACHN-490 MIC (E. coli (21); at 1 μg/ml): 61.9%
Cumulative % inhibited at ACHN-490 MIC (E. coli (21); at 2 μg/ml): 100.0%
Cumulative % inhibited at ACHN-490 MIC (E. coli (21); at ≦0.25 μg/ml): 0.0%
Cumulative % inhibited at ACHN-490 MIC (S. saprophyticus (19); at 0.5 μg/ml): 94.7%
Cumulative % inhibited at ACHN-490 MIC (S. saprophyticus (19); at 1 μg/ml): 100.0%
Cumulative % inhibited at ACHN-490 MIC (S. saprophyticus (19); at ≦0.25 μg/ml): 89.5%
Cumulative % inhibited at ACHN-490 MIC (P. aeruginosa (19); at 0.5 μg/ml): 0.0%
Cumulative % inhibited at ACHN-490 MIC (P. aeruginosa (19); at 1 μg/ml): 0.0%
Cumulative % inhibited at ACHN-490 MIC (P. aeruginosa (19); at 2 μg/ml): 0.0%
Cumulative % inhibited at ACHN-490 MIC (P. aeruginosa (19); at 4 μg/ml): 36.8%
Cumulative % inhibited at ACHN-490 MIC (P. aeruginosa (19); at 8 μg/ml): 73.7%
Cumulative % inhibited at ACHN-490 MIC (P. aeruginosa (19); at 16 μg/ml): 89.5%
Cumulative % inhibited at ACHN-490 MIC (P. aeruginosa (19); at 32 μg/ml): 100.0%
Cumulative % inhibited at ACHN-490 MIC (P. aeruginosa (19); at ≦0.25 μg/ml): 0.0%
Cumulative % inhibited at ACHN-490 MIC (S. aureus (23); at 0.5 μg/ml): 13.0%
Cumulative % inhibited at ACHN-490 MIC (S. aureus (23); at 1 μg/ml): 60.9%
Cumulative % inhibited at ACHN-490 MIC (S. aureus (23); at 2 μg/ml): 95.7%
Cumulative % inhibited at ACHN-490 MIC (S. aureus (23); at 4 μg/ml): 100.0%
Cumulative % inhibited at ACHN-490 MIC (S. aureus (23); at ≦0.25 μg/ml): 0.0%
Cumulative % inhibited at ACHN-490 MIC (Enterobacter spp. (16); at 0.5 μg/ml): 75.0%
Cumulative % inhibited at ACHN-490 MIC (Enterobacter spp. (16); at 1 μg/ml): 100.0%
Cumulative % inhibited at ACHN-490 MIC (Enterobacter spp. (16); at ≦0.25 μg/ml): 0.0%
Cumulative % inhibited at ACHN-490 MIC (Klebsiella spp. (21); at 0.5 μg/ml): 95.2%
Cumulative % inhibited at ACHN-490 MIC (Klebsiella spp. (21); at 1 μg/ml): 100.0%
Cumulative % inhibited at ACHN-490 MIC (Klebsiella spp. (21); at ≦0.25 μg/ml): 19.0%

C[C@@H](O)[C@H]1C(=O)N2C(C(=O)O)=C(SCCN=CN)C[C@H]12 [IMP, imipenem, reference compound]
MIC (E. coli AECO 1003, MDR): 0.125 µg/mL
MIC [1]: > 32 µg/mL
MIC [2]: 0.25 µg/mL
MIC [3]: 0.5 µg/mL
MIC ([4]; Table 5, S. aureus MRSA ATCC 33591, read-out: MIC): > 16 µg/mL
MIC [5]: 32 µg/mL
MIC [6]: 0.125 µg/mL (≈ 0.418 µM)

CN[C@H](CC(C)C)C(=O)N[C@H]1C(=O)N[C@@H](CC(N)=O)C(=O)N[C@H]2C(=O)N[C@H]3C(=O)N[C@H](C(=O)N[C@H](C(=O)O)c4cc(O)cc(O)c4-c4cc3ccc4O)[C@H](O)c3ccc(c(Cl)c3)Oc3cc2cc(c3O[C@@H]2O[C@H](CO)[C@@H](O)[C@H](O)[C@H]2O[C@H]2C[C@](C)(N)[C@H](O)[C@H](C)O2)Oc2ccc(cc2Cl)[C@H]1O [VAN, vancomycin]
MIC [4]: 1 µg/mL

O=C1CN(/N=C/c2ccc([N+](=O)[O-])o2)C(=O)N1 [nitrofurantoin]
Staphylococcal susceptibility rate (Staphylococcal isolates): 33.3%
